Results on 14 compounds are retold here after PubChem BioAssay (NCI).

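In this assay, cells in 96-well plates receive the compound at five concentrations for 48 hours. Endpoints are linearly interpolated between the surrounding concentrations. GI50: concentration for 50% inhibition of growth. TGI: total growth inhibition.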

Common to all, as to experiment: NCI-60 cell line screen, 48 h
The subject of experiment [1] is EKVX NSCLC.
Experiment [2] concerns HCT-116 colon.
The subject of experiment [3] is HL-60(TB) leukemia.
Experiment [4] deals with HOP-92 NSCLC.
The subject of experiment [5] is MALME-3M melanoma.
Experiment [6] has as its system RPMI-8226 leukemia.
Experiment [7] concerns SK-MEL-5 melanoma.
Experiment [8] concerns SK-OV-3 ovarian.
In experiment [9] the test system is SNB-19 CNS.
Experiment [10] relates to RXF 393 renal.

In the case of `CCOC(=O)Nc1ccc(-c2nc(-c3cccc(OCCN4CCOCC4)c3)c(-c3ccnc(Br)c3)[nH]2)cc1`, the GI50 is 3.2 µM in [1]; 2.98 µM in experiment [2]; 2.15 µM in [3]; 2.77 µM in experiment [4]; 1.6 µM in [5]; 1.07 µM in [6]. Besides, the GI50 in [7] was 1.74 µM; in experiment [8] it was 2.66 µM; in experiment [9] it was 3.81 µM. The TGI was above 100 µM in experiment [1]; above 100 µM in experiment [2]; 5.39 µM in experiment [3]; 7.79 µM in experiment [4]; 3.46 µM in experiment [5]; 3.78 µM in experiment [6]. In addition, the TGI in experiment [7] was 3.15 µM; in experiment [8], 6.25 µM; in experiment [9] it was above 100 µM.

`COC1(OC)C(N(C)C)=C(Cl)C(=O)/C1=C/C=O`: the TGI in experiment [2], in experiment [3], in [4], in [5], in experiment [6] and in [7] was above 100 µM each time. Also, the TGI in [8] and in experiment [9] was above 100 µM each time.

Regarding `CC1CN(C(=O)CN2CCC(CCCCN(C)C)CC2)c2ccccc2NC1=O` (configuration not stated), the TGI in experiment [2], in [3], in [4], in experiment [5], in experiment [6] and in experiment [7] was above 100 µM each time. Further, the TGI in experiment [8] and in experiment [9] was above 100 µM in each case.

In the case of `CCCC(=O)Nc1cc2c3c(c1)CCCN3CCC2`, the TGI in experiment [2], in experiment [3], in experiment [4], in experiment [5], in [6] and in experiment [7] was above 10 µM throughout. Besides, the TGI in [8] and in [9] was above 10 µM in each case.

Regarding `CCN1CCC(O)(c2ccc(OC)cc2)C(C(=O)c2ccc(OC)cc2)C1` (configuration not stated), the TGI was 98 µM in experiment [1]; 52.4 µM in experiment [2]; 46.9 µM in [3]; 38.9 µM in experiment [6]; 29 µM in experiment [7]; above 100 µM in experiment [8]. The TGI in experiment [9] came to 69.1 µM.

As for `O=C1/C(=C/c2ccc3c(c2)OCO3)SC2C=Nc3ccccc3N12` (configuration not stated), the TGI in [1], in experiment [2], in experiment [4], in experiment [5], in experiment [10] and in [7] was above 100 µM each time. The same compound displayed a TGI in experiment [9] above 100 µM.

Turning to `COc1ccc(NC(=O)/C(Cc2cc(=O)oc3cc(O)ccc23)=N\NC(C)(C)C)c(OC)c1`, the TGI in experiment [1], in experiment [2], in experiment [3], in experiment [4], in experiment [5] and in [6] was above 100 µM each time. Further, the TGI in [7], in experiment [8] and in experiment [9] was above 100 µM in each case.

As for `CO/N=C(\COc1ccc2c(c1)oc(=O)c1cc(OC)ccc12)c1ccc(OC)cc1`, the GI50 in [1], in [2], in [4], in [5], in experiment [6] and in experiment [10] was above 100 µM throughout. The GI50 in [7], in experiment [8] and in [9] was above 100 µM each time. Further, the TGI in experiment [1], in experiment [2], in [4], in [5], in experiment [6] and in experiment [10] was above 100 µM throughout. Moreover, the TGI in experiment [7], in experiment [8] and in [9] was above 100 µM in each case.

On to `CCOC(=O)C(=[N+]=[N-])[Si](C)(C)C`, for which the TGI in experiment [2], in experiment [4], in experiment [5], in experiment [10], in [7] and in experiment [9] was above 100 µM each time.

As to `O=C(CCc1n[nH]c(=S)o1)Nc1ccccc1C(F)(F)F`, the TGI in experiment [1] is above 100 µM; in experiment [3], above 100 µM; in [4], above 100 µM; in [5], above 100 µM; in experiment [6], 85.1 µM; in [7], above 100 µM. The TGI in [8] and in experiment [9] was above 100 µM in each case.

With `COc1ccc(CC2NCCc3c2[nH]c2ccccc32)cc1` (configuration not stated), the TGI was above 100 µM in experiment [1]; above 100 µM in experiment [2]; 53.5 µM in [3]; 58.6 µM in [4]; above 100 µM in [6]; above 100 µM in experiment [7]. For the same compound, the TGI in experiment [8] and in experiment [9] was above 100 µM each time.

As for `OCC1OC(c2nc(C3=NCCCN3)cs2)C(O)C1O` (configuration not stated), the TGI in experiment [1], in experiment [2], in experiment [3], in experiment [4], in [5] and in experiment [6] was above 100 µM each time. Further, the TGI in experiment [8] and in [9] was above 100 µM throughout.

As for `Cc1cc(N(CCC#N)CCC#N)ccc1N=Nc1ccc(C(=O)O)cc1`, the TGI in experiment [1], in experiment [5], in experiment [6], in experiment [10], in [7] and in [8] was above 100 µM in each case.

Turning to `Clc1ccc2[nH]cc(-c3nnnn3-c3ccccc3)c2c1`, the GI50 in experiment [1] was 28.3 µM; in experiment [2], 18.3 µM; in experiment [4], 27.5 µM; in [5] it was 13.5 µM; in experiment [6], 14.5 µM; in experiment [10] it was 32.2 µM. Moreover, the GI50 is 9.97 µM in experiment [7], above 44.3 µM in [8] and 38.4 µM in experiment [9]. Besides, the TGI in [1] is above 100 µM; in [2], 57.5 µM; in experiment [4], above 100 µM; in experiment [5], above 56.5 µM; in experiment [6] it was 43.3 µM; in [10] it was above 100 µM. The TGI in [7] was 28.8 µM; in [8] it was above 75.3 µM; in [9], above 100 µM.
